Measurements reported in patent US8686059B2, “Base and radical generator, composition using same and method for curing same” (Three Bond Co., Ltd., priority 2009, dated 2014).

Tests used:
[1] = Confirmation of photobase generation: pH of aqueous solution before and after 365-nm irradiation; format: physicochemical; settings: 1.00 g/L aqueous solution
Protocol: An aqueous solution having a concentration of 1.00 g/L was prepared from the aminimide compound A and pure water, and 50 ml of this was put into a transparent glass-made sample bottle having an inner diameter of 38 mm and a height of 58 mm, and with stirring with a stirrer while sealed up, the pH of the aqueous solution was measured with a pH meter, Horiba Seisakusho's D54. Further kept sealed up, the sample bottle was irradiated with 365-nm active energy rays on the side thereof at a lighting intensity of 100 mW/cm^2, using a spot UV irradiator, Hamamatsu Photonics' LC8, and the pH of the solution was measured after irradiation for specified seconds. The pH before irradiation with active energy rays was 6.28; and the pH after irradiation with active energy rays for 20 seconds was 9.78; the pH after irradiation for 30 seconds was 9.90; and the pH after irradiation for 50 seconds was 10.01.

melting point	pH before irradiation with active energy rays [1]	pH after irradiation with active energy rays for 20 seconds ([1]; 365 nm, 100 mW/cm^2, 20 seconds)	pH after irradiation for 30 seconds ([1]; 365 nm, 100 mW/cm^2, 30 seconds)	pH after irradiation for 50 seconds ([1]; 365 nm, 100 mW/cm^2, 50 seconds)	SMILES
100 to 101 °C (dec.)	–	–	–	–	CC(=O)OC(C)C[N+](C)(C)[N-]C(=O)C(=O)c1ccccc1 (stereo not drawn) [Aminimide Compound D]
–	6.28	9.78	9.90	10.01	CC(O)C[N+](C)(C)[N-]C(=O)C(=O)c1ccccc1 (stereo not drawn) [Aminimide Compound A]
102 to 103 °C (dec.)	–	–	–	–	COc1ccc(C(=O)C(=O)[N-][N+](C)(C)CC(C)O)cc1 (stereo not drawn) [Aminimide Compound B]
